The text below walks through data of patent US9708315B2, “1,2,4-triazolo[4,3-a]pyridine compounds and their use as positive allosteric modulators of MGLUR2 receptors” (Janssen Pharmaceutica NV, priority 2013, dated 2017).

In the first assay the target is T1, human mGlu2 receptor (Homo sapiens, UniProt Q14416).
T1 construct: expressed in transfected cells; host or cells: CHO cells
T1 sequence (Q14416 19-872): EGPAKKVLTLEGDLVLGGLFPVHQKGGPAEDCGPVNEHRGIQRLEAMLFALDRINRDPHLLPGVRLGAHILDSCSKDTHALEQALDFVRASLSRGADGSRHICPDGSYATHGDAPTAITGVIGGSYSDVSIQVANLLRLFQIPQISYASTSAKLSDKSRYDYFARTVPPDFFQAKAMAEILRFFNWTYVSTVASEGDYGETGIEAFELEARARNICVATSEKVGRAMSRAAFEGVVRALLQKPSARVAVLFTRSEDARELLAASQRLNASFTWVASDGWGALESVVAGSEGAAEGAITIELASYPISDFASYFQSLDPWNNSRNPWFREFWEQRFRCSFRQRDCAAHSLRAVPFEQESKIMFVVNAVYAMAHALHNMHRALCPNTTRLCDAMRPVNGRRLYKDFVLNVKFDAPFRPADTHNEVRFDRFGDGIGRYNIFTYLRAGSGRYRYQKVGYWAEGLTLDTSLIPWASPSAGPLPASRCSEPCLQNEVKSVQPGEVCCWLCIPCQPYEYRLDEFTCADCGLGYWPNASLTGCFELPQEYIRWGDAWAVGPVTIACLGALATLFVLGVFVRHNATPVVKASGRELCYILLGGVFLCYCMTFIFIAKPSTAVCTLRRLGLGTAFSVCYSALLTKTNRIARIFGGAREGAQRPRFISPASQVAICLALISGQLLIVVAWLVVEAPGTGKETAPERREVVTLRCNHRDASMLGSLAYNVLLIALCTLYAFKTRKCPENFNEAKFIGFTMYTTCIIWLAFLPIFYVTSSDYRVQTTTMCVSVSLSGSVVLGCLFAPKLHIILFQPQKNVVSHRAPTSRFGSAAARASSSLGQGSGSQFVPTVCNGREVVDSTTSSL
As to the kind of experiment: [35S]GTPγS binding assay, mGluR2 PAM. The following applies: GTPγS - hmGluR2 PAM pEC50, in presence of glutamate at EC20; EC50 expressed in M. It counts as biochemical. The protocol: [^35S]GTPγS Binding Assay
The [^35S]GTPγS binding assay is a functional membrane-based assay used to study G-protein coupled receptor (GPCR) function whereby incorporation of a non-hydrolysable form of GTP, [^35S]GTPγS (guanosine 5′-triphosphate, labelled with […] ^35S), is measured.
Cells were then collected by scraping in PBS and cell suspension was centrifuged (10 min at 4000 RPM in benchtop centrifuge). Supernatant was discarded and pellet gently resuspended in 50 mM Tris-HCl, pH 7.4 by mixing with a vortex and pipetting up and down. The suspension was centrifuged at 16,000 RPM (Sorvall RC-5C plus rotor SS-34) for 10 minutes and the supernatant discarded. The pellet was homogenized in 5 mM Tris-HCl, pH 7.4 using an ultra-turrax homogenizer and centrifuged again (18,000 RPM, 20 min, 4° C.). The final pellet was resuspended in 50 mM Tris-HCl, pH 7.4 and stored at −80° C. in appropriate aliquots before use. Protein concentration was determined by the Bradford method (Bio-Rad, USA) with bovine serum albumin as standard.
Measurement of mGluR2 positive allosteric modulatory activity of test compounds was performed as follows. Test compounds and glutamate were diluted in assay buffer containing 10 mM HEPES acid, 10 mM HEPES salt, pH 7.4, 100 mM NaCl, 3 mM MgCl2 and 10 μM GDP. Human mGlu2 receptor-containing membranes were thawed on ice and diluted in assay buffer supplemented with 14 μg/ml saponin. Membranes were pre-incubated with compound alone or together with a predefined (˜EC20) concentration of glutamate (PAM assay) for 30 min at 30° C. After addition of [^35S]GTPγS (f c. 0.1 nM), assay mixtures were shaken briefly and further incubated to allow [^35S]GTPγS incorporation on activation (30 minutes, 30° C.). Final assay mixtures contained 7 μg of membrane protein in 10 mM HEPES acid, 10 mM HEPES salt, pH 7.4, 100 mM NaCl, 3 mM MgCl2, 10 μM GDP and 2 μg/ml saponin. […] Filters were washed 6 times with ice-cold 10 mM NaH2PO4/10 mM Na2HPO4, pH 7.4. Filters were then air-dried, and 40 μl of liquid scintillation cocktail (Microscint-O) was added to each well. Membrane-bound radioactivity was counted in a Microplate Scintillation and Luminescence Counter from Perkin Elmer.
The concentration-response curves of representative compounds of the present invention—obtained in the presence of EC20 of mGluR2 agonist glutamate to determine positive allosteric modulation (PAM)—were generated using the Lexis software interface (developed at J&J). Data were calculated as % of the control glutamate response, defined as the maximal response that is generated upon addition of glutamate alone. Sigmoid concentration-response curves plotting these percentages versus the log concentration of the test compound were analyzed using non-linear regression analysis. The concentration producing half-maximal effect is then calculated as EC50.
The pEC50 values below were calculated as the −log EC50, when the EC50 is expressed in M. Emax is defined as relative maximal effect (i.e. maximal % effect relative to the control glutamate response).
All compounds were tested in presence of mGluR2 agonist glutamate at a predetermined EC20 concentration, to determine positive allosteric modulation. pEC50 values were calculated from a concentration-response experiment of at least 8 concentrations.
(GTPγS is a poorly hydrolysed GTP analogue; its binding reports G protein activation.)
As to `CC(Oc1ccc(F)cc1F)c1ccn2c(CC3CCC3)nnc2c1C(F)(F)F` (single isomer, unassigned) [Compound 17, 3-(Cyclobutylmethyl)-7-[(1*R)-1-(2,4-difluorophenoxy)ethyl]-8-(trifluoromethyl)[1,2,4]triazolo[4,3-a]pyridine], the EC50 is 18.6 nM.

As for `CC(Oc1ccc(F)cc1F)c1ccn2c(CC3CCC3)nnc2c1C(F)(F)F` (single isomer, unassigned) [Compound 18, 3-(Cyclobutylmethyl)-7-[(1*S)-1-(2,4-difluorophenoxy)ethyl]-8-(trifluoromethyl)[1,2,4]triazolo[4,3-a]pyridine], the EC50 is 575 nM.

As to `CCOCc1nnc2c(C(F)(F)F)c(C(C)Oc3c(F)cc(F)cc3F)ccn12` (single isomer, unassigned) [Compound 22, 3-(Ethoxymethyl)-8-(trifluoromethyl)-7-[(1*R)-1-(2,4,6-trifluorophenoxy)ethyl][1,2,4]triazolo[4,3-a]pyridine], the EC50 was 24.5 nM. Same read-out and setting: with `CCOCc1nnc2c(C(F)(F)F)c(C(C)Oc3c(F)cc(F)cc3F)ccn12` (single isomer, unassigned) [Compound 23, 3-(Ethoxymethyl)-8-(trifluoromethyl)-7-[(1*S)-1-(2,4,6-trifluorophenoxy)ethyl][1,2,4]triazolo[4,3-a]pyridine] the figure was 1150 nM. As for `CC(Oc1ccc(F)cc1F)c1ccn2c(CC3CCC3)nnc2c1C(F)(F)F` (centres unmarked) [Compound 16, 3-(Cyclobutylmethyl)-7-[1-(2,4-difluorophenoxy)ethyl]-8-(trifluoromethyl)[1,2,4]triazolo[4,3-a]pyridine], the EC50 was 28.8 nM.

The same assay, now with this note: in presence of glutamate at EC20; EC50 expressed in M; read-out: GTPγS - hmGluR2 PAM pEC50 (converted).
Turning to `CC(Oc1ccc(F)cc1)c1ccn2c(CC3CC3)nnc2c1C(F)(F)F` (single isomer, unassigned) [Compound 2, 3-(Cyclopropylmethyl)-7-[(1*R)-1-(4-fluorophenoxy)ethyl]-8-(trifluoromethyl)[1,2,4]triazolo[4,3-a]pyridine], the EC50 is 145 nM.

`CC(Oc1ccc(F)cc1)c1ccn2c(CC3CC3)nnc2c1C(F)(F)F` (single isomer, unassigned) [Compound 3, 3-(Cyclopropylmethyl)-7-[(1*S)-1-(4-fluorophenoxy)ethyl]-8-(trifluoromethyl)[1,2,4]triazolo[4,3-a]pyridine]: the EC50 was 1620 nM. As to `CCOCc1nnc2c(C(F)(F)F)c(C(C)Oc3ccc(F)cc3F)ccn12` (single isomer, unassigned) [Compound 20, 7-[(1*R)-1-(2,4-Difluorophenoxy)ethyl]-3-(ethoxymethyl)-8-(trifluoromethyl)[1,2,4]triazolo[4,3-a]pyridine], the EC50 is 85.1 nM. Take `CCOCc1nnc2c(C(F)(F)F)c(C(C)Oc3ccc(F)cc3F)ccn12` (single isomer, unassigned) [Compound 21, 7-[(1*S)-1-(2,4-Difluorophenoxy)ethyl]-3-(ethoxymethyl)-8-(trifluoromethyl)[1,2,4]triazolo[4,3-a]pyridine]: the EC50 was 479 nM.

For the compound `CCCc1nnc2c(C(F)(F)F)c(C(C)Oc3ccc(F)cc3F)ccn12` (single isomer, unassigned) [Compound 31], the EC50 was 89.1 nM. On the same count and under the same terms, then `CCCc1nnc2c(C(F)(F)F)c(C(C)Oc3ccc(F)cc3F)ccn12` (single isomer, unassigned) [Compound 32], with 1950 nM; and `CC(Oc1ccc(F)cc1)c1ccn2c(CC3CC3)nnc2c1C(F)(F)F` (centres unmarked) [Compound 1, 3-(Cyclopropylmethyl)-7-[1-(4-fluorophenoxy)ethyl]-8-(trifluoromethyl)[1,2,4]triazolo[4,3-a]pyridine], with 257 nM.

For the compound `CC(Oc1ccc(F)cc1F)c1ccn2c(CC3CC3)nnc2c1C(F)(F)F` (centres unmarked) [Compound 4, 3-(Cyclopropylmethyl)-7-[1-(2,4-difluorophenoxy)ethyl]-8-(trifluoromethyl)[1,2,4]triazolo[4,3-a]pyridine], the EC50 was 91.2 nM. Regarding `C[C@@H](Oc1ccc(F)cc1F)c1ccn2c(CC3CC3)nnc2c1C(F)(F)F` [Compound 5, 3-(Cyclopropylmethyl)-7-[(1R)-1-(2,4-difluorophenoxy)ethyl]-8-(trifluoromethyl)[1,2,4]triazolo[4,3-a]pyridine], the EC50 was 871 nM. Consider `C[C@H](Oc1cc(F)cc(F)c1)c1ccn2c(CC3CC3)nnc2c1C(F)(F)F` [Compound 7, 3-(Cyclopropylmethyl)-7-[(1S)-1-(3,5-difluorophenoxy)ethyl]-8-(trifluoromethyl)[1,2,4]triazolo[4,3-a]pyridine], for which the EC50 is 49 nM. Turning to `C[C@H](Oc1ccc(F)c(F)c1)c1ccn2c(CC3CC3)nnc2c1C(F)(F)F` [Compound 8, 3-(Cyclopropylmethyl)-7-[(1S)-1-(3,4-difluorophenoxy)ethyl]-8-(trifluoromethyl)[1,2,4]triazolo[4,3-a]pyridine], the EC50 is 91.2 nM. For `C[C@H](Oc1cccc(F)c1F)c1ccn2c(CC3CC3)nnc2c1C(F)(F)F` [Compound 9, 3-(Cyclopropylmethyl)-7-[(1S)-1-(2,3-difluorophenoxy)ethyl]-8-(trifluoromethyl)[1,2,4]triazolo[4,3-a]pyridine], the EC50 was 50.1 nM. On the same count and under the same terms, with `C[C@H](Oc1cc(F)ccc1F)c1ccn2c(CC3CC3)nnc2c1C(F)(F)F` [Compound 10, 3-(Cyclopropylmethyl)-7-[(1S)-1-(2,5-difluorophenoxy)ethyl]-8-(trifluoromethyl)[1,2,4]triazolo[4,3-a]pyridine] the figure was 33.9 nM. With `C[C@H](Oc1c(F)cccc1F)c1ccn2c(CC3CC3)nnc2c1C(F)(F)F` [Compound 11, 3-(Cyclopropylmethyl)-7-[(1S)-1-(2,6-difluorophenoxy)ethyl]-8-(trifluoromethyl)[1,2,4]triazolo[4,3-a]pyridine], the EC50 was 5.62 nM. Regarding `COc1cc(F)ccc1O[C@@H](C)c1ccn2c(CC3CC3)nnc2c1C(F)(F)F` [Compound 12, 3-(Cyclopropylmethyl)-7-[(1S)-1-(4-fluoro-2-methoxyphenoxy)ethyl]-8-(trifluoromethyl)[1,2,4]triazolo[4,3-a]pyridine], the EC50 is 102 nM.

With `Cc1ccc(O[C@@H](C)c2ccn3c(CC4CC4)nnc3c2C(F)(F)F)c(Cl)c1` [Compound 13, 7-[(1S)-1-(2-Chloro-4-methylphenoxy)ethyl]-3-(cyclopropylmethyl)-8-(trifluoromethyl)[1,2,4]triazolo[4,3-a]pyridine], the EC50 was 17.8 nM.

With `Cc1cc(F)ccc1O[C@@H](C)c1ccn2c(CC3CC3)nnc2c1C(F)(F)F` [Compound 14, 3-(Cyclopropylmethyl)-7-[(1 S)-1-(4-fluoro-2-methylphenoxy)ethyl]-8-(trifluoromethyl)[1,2,4]triazolo[4,3-a]pyridine], the EC50 is 29.5 nM.

With `C[C@H](Oc1c(F)cc(F)cc1F)c1ccn2c(CC3CC3)nnc2c1C(F)(F)F` [Compound 15, 3-(Cyclopropylmethyl)-8-(trifluoromethyl)-7-[(1S)-1-(2,4,6-trifluorophenoxy)ethyl][1,2,4]triazolo[4,3-a]pyridine], the EC50 was 6.92 nM. Consider `CCOCc1nnc2c(C(F)(F)F)c(C(C)Oc3ccc(F)cc3F)ccn12` (centres unmarked) [Compound 19, 7-[1-(2,4-Difluorophenoxy)ethyl]-3-(ethoxymethyl)-8-(trifluoromethyl)[1,2,4]triazolo[4,3-a]pyridine], for which the EC50 is 195 nM. As to `CCCc1nnc2c(C(F)(F)F)c(C(C)Oc3ccc(F)cc3F)ccn12` (centres unmarked) [Compound 30, 7-[1-(2,4-Difluorophenoxy)ethyl]-3-propyl-8-(trifluoromethyl)[1,2,4]triazolo[4,3-a]pyridine], the EC50 is 126 nM.

Staying with this assay, now noted: maximal % effect relative to the control glutamate response; glutamate at EC20.
Take `CC(Oc1ccc(F)cc1F)c1ccn2c(CC3CCC3)nnc2c1C(F)(F)F` (single isomer, unassigned) [Compound 18, 3-(Cyclobutylmethyl)-7-[(1*S)-1-(2,4-difluorophenoxy)ethyl]-8-(trifluoromethyl)[1,2,4]triazolo[4,3-a]pyridine]: the “GTPγS - hmGluR2 PAM Emax” value came out at 213%.

Still in this assay, the particulars now being: read-out: GTPγS - hmGluR2 PAM Emax, maximal % effect relative to the control glutamate response; glutamate at EC20.
As for `CC(Oc1ccc(F)cc1F)c1ccn2c(CC3CCC3)nnc2c1C(F)(F)F` (single isomer, unassigned) [Compound 17, 3-(Cyclobutylmethyl)-7-[(1*R)-1-(2,4-difluorophenoxy)ethyl]-8-(trifluoromethyl)[1,2,4]triazolo[4,3-a]pyridine], the maximal effect (Emax) (in general, the greatest response seen or fitted, relative to the assay's reference) is 317%. `CC(Oc1ccc(F)cc1F)c1ccn2c(CC3CCC3)nnc2c1C(F)(F)F` (centres unmarked) [Compound 16, 3-(Cyclobutylmethyl)-7-[1-(2,4-difluorophenoxy)ethyl]-8-(trifluoromethyl)[1,2,4]triazolo[4,3-a]pyridine]: the Emax stood at 284%. As to `CCOCc1nnc2c(C(F)(F)F)c(C(C)Oc3ccc(F)cc3F)ccn12` (centres unmarked) [Compound 19, 7-[1-(2,4-Difluorophenoxy)ethyl]-3-(ethoxymethyl)-8-(trifluoromethyl)[1,2,4]triazolo[4,3-a]pyridine], the Emax was 297%.
